In PubChem BioAssay (NCI):
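Exposure lasted 48 hours, with cells grown in 96-well plates and compounds tested at five concentrations. TGI is the concentration that stops growth completely.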

Assays:
Assay in all cases: inhibition of tumour cell growth, NCI panel, 48 h
[1] = test system: SF-268 CNS
[2] = test system: 786-0 renal
[3] = test system: SNB-75 CNS
[4] = test system: HOP-62 NSCLC
[5] = test system: SN12C renal
[6] = test system: SR leukemia
[7] = test system: BT-549 breast
[8] = test system: RXF 393 renal
[9] = test system: HL-60(TB) leukemia
[10] = test system: HCT-15 colon

SMILES | TGI [1] [µM] | TGI [2] [µM] | TGI [3] [µM] | TGI [4] [µM] | TGI [5] [µM] | TGI [6] [µM] | TGI [7] [µM] | TGI [8] [µM] | TGI [9] [µM] | TGI [10] [µM]
C=C(C)[C@@H]1CC[C@]2(C(=O)OC3OC(COC4OC(CO)C(OC5OC(C)C(O)C(O)C5O)C(O)C4O)C(O)C(O)C3O)CC[C@]3(C)[C@H](CC[C@@H]4[C@@]5(C)CC[C@H](O)[C@@](C)(CO)[C@@H]5CC[C@]43C)[C@@H]12 (stereo not given in full) | 9.89 | > 10 | > 10 | > 10 | 9.79 | > 4.48 | > 8.43 | > 10 | 1.13 | > 9.68
Nc1cc2ncnc(Nc3cccc(Br)c3)c2cn1 | > 100 | > 100 | > 100 | > 100 | > 100 | > 100 | > 100 | > 100 | > 100 | > 100
CC(C)Oc1cc2c(cc1O)CC[C@@H]1[C@@H]2CC[C@]2(C)[C@@H](O)CC[C@@H]12 | 51.7 | 36.1 | 53.1 | 18.1 | 29.1 | 27.8 | 52.7 | 17.2 | > 38.1 | 19.1
CCOC(=O)COC1=Nc2cc(OC)c(OC)c3nc(Cl)cc(c23)C1=O | 6.83 | 3.04 | 5.87 | 7.97 | 3.3 | > 21.5 | 3.45 | 3.34 | 0.879 | 6.16
CN1CCCC(OC(=O)c2cc3cc(CCl)ccc3oc2=O)C1 (stereo not given) | 47 | 58.4 | 52.8 | 67.7 | 43.6 | 70.1 | 49.2 | 54.6 | 13.2 | 51.9
O=C1NC(=S)N/C1=C\c1ccc(Sc2ccccc2C(=O)O)s1 | > 100 | > 100 | > 100 | > 100 | > 100 | > 100 | > 100 | > 100 | > 100 | > 100
COC(CC1(CCNc2ccccc2)C(=O)N(COCC[Si](C)(C)C)c2ccccc21)OC (stereo not given) | 26.3 | 25.4 | 14.3 | 28 | 53.6 | > 100 | 32.5 | 29.4 | 98.2 | 34.2
CCC(=O)Nc1ccc(N2C(=O)/C(=C/c3ccc(O)c(OC)c3)N=C2c2ccccc2)cc1 | > 100 | 95.6 | > 100 | > 100 | > 100 | > 100 | 44.9 | 48.4 | > 100 | > 100
CCC1(O)CC(O)c2c(O)c3c(c(O)c2C1C(=O)OC)C(=O)c1cccc(O)c1C3=O (stereo not given) | 16.2 | 14.3 | 18.5 | 16.6 | 17.3 | 5.91 | 34.8 | 23.5 | 6.07 | 21.1
CC(=O)OCC1(CNc2nc(N)ncc2C#N)CC(CCc2ccccc2)C1 (stereo not given) | > 100 | > 100 | > 100 | > 100 | > 100 | > 100 | > 100 | > 100 | > 100 | > 100
COc1ccc(OC)c(-c2cn3c(n2)sc2ccccc23)c1 | > 100 | > 100 | > 100 | > 100 | > 100 | > 100 | > 100 | > 100 | > 100 | > 100
